ChEMBL document CHEMBL1130603, “Studies on the C-terminal of hexapeptide inhibitors of the hepatitis C virus serine protease” (Bioorg Med Chem Lett, 1998)
Square brackets hold non-standard residues; d marks the D form. Peptide text beside a SMILES is read from it. * marks the point of attachment. Nle = CCCC[C@H](N)C(=O)O; Nva = CCC[C@H](N)C(=O)O; Abu = CC[C@H](N)C(=O)O; CF3 = FC(F)(F)*

Columns and labels:
[1] = target: Hepatitis C virus serine protease, NS3/NS4A (Hepatitis C virus, UniProt A3EZI9+D2K2A8); test: (§1) Inhibition of hepatitis C virus (HCV) NS3 protease.; format: protein-complex assay, Hepacivirus hominis
[2] = target: T1, Hepatitis C virus serine protease, NS3/NS4A (Hepatitis C virus, UniProt D2K2A8+A3EZI9); test: as §1; format: protein-complex assay, Hepacivirus hominis
Neutrophil elastase = target: T2, Neutrophil elastase (Homo sapiens, UniProt P08246); test: Compound was tested for inhibition of human leucocyte elastase (HLE)
T2 sequence (P08246 whole entry): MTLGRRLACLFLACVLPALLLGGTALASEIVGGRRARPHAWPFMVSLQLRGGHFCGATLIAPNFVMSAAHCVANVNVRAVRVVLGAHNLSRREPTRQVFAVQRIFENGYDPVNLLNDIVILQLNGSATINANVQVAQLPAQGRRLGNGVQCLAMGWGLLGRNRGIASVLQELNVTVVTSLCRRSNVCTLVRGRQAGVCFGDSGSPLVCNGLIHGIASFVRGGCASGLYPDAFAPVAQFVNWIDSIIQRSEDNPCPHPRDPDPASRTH

Cathepsin B = Cathepsin B (Homo sapiens, UniProt P07858); test: Compound was tested for inhibition of human liver Cathepsin B
[3] = Compound was tested for inhibition of bovine pancreatic alpha-chymotrypsin; design: species or system Bos taurus
Pancreatic elastase = Pancreatic elastase (Sus scrofa, UniProt P08419+P00772); test: Compound was tested for inhibition of porcine pancreatic elastase (PPE); format: protein assay
[4] = target: T1, Hepatitis C virus serine protease, NS3/NS4A; test: Compound was tested for competitive inhibition of hepatitis C virus (HCV) serine protease; format: protein-complex assay, Hepacivirus hominis

Molecule	IC50 [1] [µM]	IC50 (Neutrophil elastase) [µM]	IC50 (Cathepsin B) [µM]	IC50 [3] [µM]	IC50 (Pancreatic elastase) [µM]	other results
Ac-DDIVPL-OH	800	–	–	–	–	–
CCC[C@@H](NC(=O)[C@@H]1CCCN1C(=O)[C@@H](NC(=O)[C@@H](NC(=O)[C@@H](CC(=O)O)NC(=O)[C@H](CC(=O)O)NC(C)=O)[C@@H](C)CC)C(C)C)C(N)=O	–	–	–	–	–	IC50 [2]: > 1000 µM
CCC[C@H](NC(=O)[C@@H]1CCCN1C(=O)[C@@H](NC(=O)[C@@H](NC(=O)[C@H](CC(=O)O)NC(=O)[C@H](CC(=O)O)NC(C)=O)[C@@H](C)CC)C(C)C)C(=O)O (Ac-DDIVP[Nva]-OH)	150	–	–	–	–	–
CCC[C@H](NC(=O)[C@@H]1CCCN1C(=O)[C@@H](NC(=O)[C@@H](NC(=O)[C@H](CC(=O)O)NC(=O)[C@H](CC(=O)O)NC(C)=O)[C@@H](C)CC)C(C)C)C(=O)C(F)(F)F (Ac-DDIVP[Nva]-CF3)	160	–	–	–	–	–
CC[C@H](C)[C@H](NC(=O)[C@@H]1CCCN1C(=O)[C@@H](NC(=O)[C@@H](NC(=O)[C@H](CC(=O)O)NC(=O)[C@H](CC(=O)O)NC(C)=O)[C@@H](C)CC)C(C)C)C(=O)O	780	–	–	–	–	–
CCC[C@H](NC(=O)[C@@H]1CCCN1C(=O)[C@@H](NC(=O)[C@@H](NC(=O)[C@@H](CC(=O)O)NC(=O)[C@H](CC(=O)O)NC(C)=O)[C@@H](C)CC)C(C)C)C(=O)C(=O)NCc1ccccc1	0.64	0.1	172	30	< 0.06	–
CC[C@H](C)[C@H](NC(=O)[C@H](CC(=O)O)NC(=O)[C@H](CC(=O)O)NC(C)=O)C(=O)N[C@H](C(=O)N1CCC[C@H]1C(=O)N[C@@H](CS)C(=O)O)C(C)C	28	–	–	–	–	–
CCC[C@@H](NC(=O)[C@@H]1CCCN1C(=O)[C@@H](NC(=O)[C@@H](NC(=O)[C@@H](CC(=O)O)NC(=O)[C@H](CC(=O)O)NC(C)=O)[C@@H](C)CC)C(C)C)C(=O)NC	–	–	–	–	–	IC50 [2]: 160 µM
CCC[C@H](NC(=O)[C@@H]1CCCN1C(=O)[C@@H](NC(=O)[C@@H](NC(=O)[C@@H](CC(=O)O)NC(=O)[C@H](CC(=O)O)NC(C)=O)[C@@H](C)CC)C(C)C)C(=O)O (Ac-D[dD]IVP[Nva]-OH)	17	> 1000	> 1000	> 1000	> 1000	–
CCCC[C@H](NC(=O)[C@@H]1CCCN1C(=O)[C@@H](NC(=O)[C@@H](NC(=O)[C@H](CC(=O)O)NC(=O)[C@H](CC(=O)O)NC(C)=O)[C@@H](C)CC)C(C)C)C(=O)O (Ac-DDIVP[Nle]-OH)	500	–	–	–	–	–
CCC[C@@H](C=O)NC(=O)[C@@H]1CCCN1C(=O)[C@@H](NC(=O)[C@@H](NC(=O)[C@@H](CC(=O)O)NC(=O)[C@H](CC(=O)O)NC(C)=O)[C@@H](C)CC)C(C)C	1.1	6.7	9.5	> 900	2.2	–
Ac-DDIVPA-OH	750	–	–	–	–	–
CCC[C@H](CO)NC(=O)[C@@H]1CCCN1C(=O)[C@@H](NC(=O)[C@@H](NC(=O)[C@@H](CC(=O)O)NC(=O)[C@H](CC(=O)O)NC(C)=O)[C@@H](C)CC)C(C)C	280	–	–	–	–	–
CC[C@H](NC(=O)[C@@H]1CCCN1C(=O)[C@@H](NC(=O)[C@@H](NC(=O)[C@H](CC(=O)O)NC(=O)[C@H](CC(=O)O)NC(C)=O)[C@@H](C)CC)C(C)C)C(=O)O (Ac-DDIVP[Abu]-OH)	250	–	–	–	–	–
CCC[C@H](NC(=O)[C@@H]1CCCN1C(=O)[C@@H](NC(=O)[C@@H](NC(=O)[C@H](CC(=O)O)NC(=O)[C@H](CC(=O)O)NC(C)=O)[C@@H](C)CC)C(C)C)C(=O)C(F)(F)C(F)(F)F	79	–	–	–	–	–
CC[C@H](C)[C@H](NC(=O)[C@@H](CC(=O)O)NC(=O)[C@H](CC(=O)O)NC(C)=O)C(=O)N[C@H](C(=O)N1CCC[C@@H]1C(=O)N[C@@H](CS)C(=O)O)C(C)C	–	–	–	–	–	Ki [4]: 0.6 µM
CCC[C@@H](C=O)NC(=O)[C@@H]1CCCN1C(=O)[C@@H](NC(=O)[C@@H](NC(=O)[C@H](CC(=O)O)NC(=O)[C@H](CC(=O)O)NC(C)=O)[C@@H](C)CC)C(C)C	10	–	–	–	–	–
CCC[C@@H](NC(=O)[C@@H]1CCCN1C(=O)[C@@H](NC(=O)[C@@H](NC(=O)[C@@H](CC(=O)O)NC(=O)[C@H](CC(=O)O)NC(C)=O)[C@@H](C)CC)C(C)C)C(=O)NCc1ccccc1	–	120	> 1000	> 1000	206	IC50 [2]: 52 µM
CC[C@@H](C)[C@H](NC(=O)[C@@H]1CCCN1C(=O)[C@@H](NC(=O)[C@@H](NC(=O)[C@H](CC(=O)O)NC(=O)[C@H](CC(=O)O)NC(C)=O)[C@@H](C)CC)C(C)C)C(=O)O	190	–	–	–	–	–
CCC[C@@H](NC(=O)[C@@H]1CCCN1C(=O)[C@@H](NC(=O)[C@@H](NC(=O)[C@@H](CC(=O)O)NC(=O)[C@H](CC(=O)O)NC(C)=O)[C@@H](C)CC)C(C)C)C(=O)OC	–	–	–	–	–	IC50 [2]: 17 µM
CCC[C@H](NC(=O)[C@@H]1CCCN1C(=O)[C@@H](NC(=O)[C@@H](NC(=O)[C@@H](CC(=O)O)NC(=O)[C@H](CC(=O)O)NC(C)=O)[C@@H](C)CC)C(C)C)C(=O)C(F)(F)C(F)(F)F	12	0.06	416	18	< 0.06	–
CCC[C@H](NC(=O)[C@@H]1CCCN1C(=O)[C@@H](NC(=O)[C@@H](NC(=O)[C@H](CC(=O)O)NC(=O)[C@H](CC(=O)O)NC(C)=O)[C@@H](C)CC)C(C)C)C(=O)C(=O)NCc1ccccc1	2	0.03	100	10	< 0.06	–
CCC[C@@H](NC(=O)[C@@H]1CCCN1C(=O)[C@@H](NC(=O)[C@@H](NC(=O)[C@@H](CC(=O)O)NC(=O)[C@H](CC(=O)O)NC(C)=O)[C@@H](C)CC)C(C)C)C(=O)OCc1ccccc1	–	> 1000	> 1000	29	> 1000	IC50 [2]: 9.3 µM
CCC[C@H](NC(=O)[C@@H]1CCCN1C(=O)[C@@H](NC(=O)[C@@H](NC(=O)[C@@H](CC(=O)O)NC(=O)[C@H](CC(=O)O)NC(C)=O)[C@@H](C)CC)C(C)C)C(=O)C(F)(F)F (Ac-D[dD]IVP[Nva]-CF3)	22	< 0.06	> 900	4.5	0.19	–
